# According to US11541057B2, “Thienopyrimidinone NMDA receptor modulators and uses thereof” (Cadent Therapeutics, Inc., priority 2015, dated 2023):
# Target: T1, NMDA receptor GRIN1/GRIN2B (NR2B) expressed in HEK293 cells (Homo sapiens, UniProt Q13224)
# T1 construct: host or cells: HEK293
# Assay: Reversal of Ro 25-6981-mediated suppression of the Ca2+ response (fluo-8 fluorescence, FDSS) in HEK293 cells expressing GRIN1 and GRIN2B
# Format: cell-based
# Details: % reversal=100*(R−Rneg)/(Rpos−Rneg) of Ro 25-6981 suppression of co-agonist (glutamate/glycine) Ca2+ response, 10 min pre-incubation, compound concentration not given
# Method: HEK293 cells with constructs conferring stable expression of the GRIN1 gene and tetracycline-inducible expression of the GRIN2B gene (Chantest, Cleveland, Ohio) are grown to ˜75% confluence in tissue culture flasks at 37° C., 5% CO2. NR2B expression is induced by overnight incubation with 0.3-0.4 μg/ml tetracycline in the presence of 2.5 mM ARL-15896 at 37° C., followed by moving to 30° C. for 3-5 hours. Cells are next harvested using TripleExpress™ (Life Technologies, Carlsbad, Calif.) according to the manufacturer's instructions, first removing culture medium, rinsing with Dulbecco's phosphate buffered saline (Ca^2+ and Mg^2+-free), and then adding the TripleExpress™ reagent. Harvested cells are spun down, washed twice in Ca^2+- and Mg^2+-free Hank's Balanced Salt Solution with 20 mM HEPES and 10 mM glucose, pH 7.4 (HHnoCa solution), and counted with viability assessed using Trypan Blue. Cells are loaded with fluo-8 Ca^2+-sensitive dye in HHnoCa solution according to the manufacturer's directions (AAT Bioquest, Sunnyvale, Calif.), incubating at 37° C. for 20 minutes followed by 25 minutes at 22-25° C. After a wash in HHnoCa to remove extracellular dye, cells are resuspended in HHnoCa and plated at […] cells per well in a volume of 25 μl/well in 384 well black-wall, clear bottom plates (Hamamatsu, Middlesex, N.J.). Plates are then centrifuged to create a monolayer in the wells and stored in the dark until used.
# Prior to analysis, compound plates are prepared with each compound at 6× the final desired concentration. From stock solutions at 10 mM in 100% DMSO, compounds are spotted in the desired amounts using an ECHO liquid handler (Labcyte, Sunnyvale, Calif.) into wells of a 384-well plate and then diluted with 50 μl of HHnoCa containing 750 nM Ro 25-6981 and 120 μM 5,7-dichlorokynurenic acid (both purchased from Tocris Bioscience (Bristol, England) and maintained as 10 mM stock solutions in 100% DMSO). To insure complete compound dissolution, these plates are then placed in an orbital shaker for at least one hour. Also prepared prior to the assay is a co-agonist plate containing HHnoCa with 240 μM glutamate, 2.4 mM glycine, and 7.2 mM CaCl2, which is 2.4× the desired final concentration of each reagent. Both the compound plate and co-agonist plate are 384-well polypropylene plates from Thermo Fisher Scientific, Waltham, Mass.
# The assay is performed by first adding 10 μl solution from each well of the compound plate described above to the cell plate using a CyBiWell liquid handler (Analytik Jena AG, Jena, Germany), followed by 10 minutes pre-incubation in the dark. Cell plates are then loaded onto a Hamamatsu FDSS 6000 plate reader. After a 30-second baseline, 25 μl is added to each well from the co-agonist plate, and the fluorescence signal is recorded for another 2 minutes. FDSS software applies shading and autofluorescence correction, and resultant raw fluorescence measurements are exported in the form of a fluorescence ratio for each well to its own reading at time zero in the experiment. In each plate, negative control wells consist of wells where Ro 25-6981 and 5,7 dichlorokynurenic acid are present and co-agonist is applied in the absence of any added assay compound. Under these conditions, the Ca^2+ response to co-agonist is suppressed. Positive control wells also present in each plate contain 5,7 dichlorokynurenic acid but no Ro 25-6981, so that co-agonist addition results in a large Ca^2+ response. Compounds tested are evaluated on the basis of their ability to reverse the suppression of the Ca^2+ response mediated by Ro 25-6981, which is quantified as % reversal=100*(R−Rneg)/(Rpos−Rneg) where R is the fluorescence ratio for the test compound at the end of the experiment and Rneg and Rpos are the end ratios for the negative and positive controls, respectively. […]
# T1 sequence (Q13224 27-1484, other chains not shown): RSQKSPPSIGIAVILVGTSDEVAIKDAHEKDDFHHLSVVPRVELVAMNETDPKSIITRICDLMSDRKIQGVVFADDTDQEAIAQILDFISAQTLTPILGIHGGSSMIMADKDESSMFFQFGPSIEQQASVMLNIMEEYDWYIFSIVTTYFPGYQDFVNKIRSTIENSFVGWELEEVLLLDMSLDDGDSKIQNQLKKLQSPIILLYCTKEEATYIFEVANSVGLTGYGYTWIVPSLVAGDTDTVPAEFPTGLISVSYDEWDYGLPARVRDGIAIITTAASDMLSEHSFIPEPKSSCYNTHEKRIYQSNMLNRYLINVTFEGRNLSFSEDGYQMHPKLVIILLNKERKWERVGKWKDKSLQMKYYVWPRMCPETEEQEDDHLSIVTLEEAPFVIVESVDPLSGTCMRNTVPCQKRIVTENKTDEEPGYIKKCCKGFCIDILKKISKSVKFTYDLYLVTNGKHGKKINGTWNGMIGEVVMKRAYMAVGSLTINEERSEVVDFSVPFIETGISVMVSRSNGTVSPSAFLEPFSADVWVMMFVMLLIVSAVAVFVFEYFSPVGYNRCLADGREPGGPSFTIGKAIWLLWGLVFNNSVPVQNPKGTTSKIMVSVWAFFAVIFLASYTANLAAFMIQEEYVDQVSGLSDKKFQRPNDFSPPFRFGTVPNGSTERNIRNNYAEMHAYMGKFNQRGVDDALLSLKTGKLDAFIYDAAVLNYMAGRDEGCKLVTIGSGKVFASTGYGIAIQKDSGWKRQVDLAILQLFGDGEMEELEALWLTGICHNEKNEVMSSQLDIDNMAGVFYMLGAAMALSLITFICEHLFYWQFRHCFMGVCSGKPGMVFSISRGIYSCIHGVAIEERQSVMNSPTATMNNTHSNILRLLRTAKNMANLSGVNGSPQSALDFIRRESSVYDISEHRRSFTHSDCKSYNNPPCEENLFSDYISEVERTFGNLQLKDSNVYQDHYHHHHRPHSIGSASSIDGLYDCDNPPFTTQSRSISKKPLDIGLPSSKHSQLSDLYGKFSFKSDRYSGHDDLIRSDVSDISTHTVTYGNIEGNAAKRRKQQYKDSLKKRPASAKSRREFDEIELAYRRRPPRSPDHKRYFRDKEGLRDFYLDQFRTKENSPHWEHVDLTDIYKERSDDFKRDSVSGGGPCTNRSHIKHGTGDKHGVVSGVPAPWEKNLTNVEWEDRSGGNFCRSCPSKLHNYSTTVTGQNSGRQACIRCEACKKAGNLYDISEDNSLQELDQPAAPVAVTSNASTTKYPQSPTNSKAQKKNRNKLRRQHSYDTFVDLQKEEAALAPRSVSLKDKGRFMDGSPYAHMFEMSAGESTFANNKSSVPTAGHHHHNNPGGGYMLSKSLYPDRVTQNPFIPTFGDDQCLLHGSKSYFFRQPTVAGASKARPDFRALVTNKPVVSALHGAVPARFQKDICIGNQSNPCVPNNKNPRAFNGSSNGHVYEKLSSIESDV
row,Response Recovered (%),Compound
1,117%,"O=C(Cn1cnc2scc(-c3ccc(Cl)c(C(F)(F)F)c3)c2c1=O)N1CC[C@@H](F)C1 [Example 64, 5-[4-chloro-3-(trifluoromethyl)phenyl]-3-{2-[(3R)-3-fluoropyrrolidin-1-yl]-2-oxoethyl}-3H,4H-thieno[2,3-d]pyrimidin-4-one]"
2,83%,O=C(Cn1cnc2scc(-c3ccc(F)c(C(F)(F)F)c3)c2c1=O)N1CCC(F)C1 (stereo not drawn) [Example 61]
3,43%,"O=C(Cn1cnc2scc(-c3ccc(F)c(C(F)(F)F)c3)c2c1=O)N1CCCC1 [Example 47, 5-[4-fluoro-3-(trifluoromethyl)phenyl]-3-[2-oxo-2-(pyrrolidin-1-yl)ethyl]-3H,4H-thieno[2,3-d]pyrimidin-4-one]"
4,41%,"O=C(Cn1cnc2scc(-c3ccc(F)c(Cl)c3)c2c1=O)N1CCCC1 [Example 30, 5-(3-chloro-4-fluorophenyl)-3-[2-oxo-2-(pyrrolidin-1-yl)ethyl]-3H,4H-thieno└2,3-d┘pyrimidin-4-one]"
5,21%,"O=C(Nn1cnc2scc(-c3ccc(Cl)c(C(F)(F)F)c3)c2c1=O)C1CCCC1 [Example 95, N-(5-(4-chloro-3-(trifluoromethyl)phenyl)-4-oxothieno[2,3-d]pyrimidin-3(4H)-yl)cyclopentanecarboxamide]"
6,3%,"O=C(Cn1cnc2scc(-c3ccc(F)c(F)c3)c2c1=O)N1CCCC1 [Example 42, 5-(3,4-difluorophenyl)-3-[2-oxo-2-(pyrrolidin-1-yl)ethyl]-3H,4H-thieno[2,3-d]pyrimidin-4-one]"
7,4%,"COc1ccc(C(F)(F)F)cc1-c1csc2ncn(CC(=O)N3CCCC3)c(=O)c12 [Example 44, 5-[2-methoxy-5-(trifluoromethyl)phenyl]-3-[2-oxo-2-(pyrrolidin-1-yl)ethyl]-3H,4H-thieno[2,3-d]pyrimidin-4-one]"
8,103%,"O=C(Cn1cnc2scc(-c3ccc(Cl)c(C(F)(F)F)c3)c2c1=O)N1C[C@@H](F)[C@@H](F)C1 [Example 66, 5-[4-chloro-3-(trifluoromethyl)phenyl]-3-{2-[(3R,4S)-3,4-difluoropyrrolidin-1-yl]-2-oxoethyl}-3H,4H-thieno[2,3-d]pyrimidin-4-one]"
9,6%,"Cc1ccc(-c2csc3ncn(CC(=O)N4CCCC4C(F)(F)F)c(=O)c23)cc1 (stereo not drawn) [Example 28, 5-(4-methylphenyl)-3-{2-oxo-2-[2-(trifluoromethyl)pyrrolidin-1-yl]ethyl}-3H,4H-thieno[2,3-d]pyrimidin-4-one]"
10,9%,Cc1cc(C(F)(F)F)ccc1-c1csc2ncn(CC(=O)N3CCCC3)c(=O)c12 [Example 50]
11,6%,"O=C(CCn1cnc2scc(-c3ccc(Cl)c(C(F)(F)F)c3)c2c1=O)N1CCCC1 [Example 101, 5-(4-chloro-3-(trifluoromethyl)phenyl)-3-(3-oxo-3-(pyrrolidin-1-yl)propyl)thieno[2,3-d]pyrimidin-4(3H)-one]"
12,87%,"O=C(Cn1cnc2scc(-c3ccc(Cl)c(C(F)(F)F)c3)c2c1=O)N1CC[C@H](F)C1 [Example 65, 5-[4-chloro-3-(trifluoromethyl)phenyl]-3-{2-[(3S)-3-fluoropyrrolidin-1-yl]-2-oxoethyl}-3H,4H-thieno[2,3-d]pyrimidin-4-one]"
13,13%,"O=C(Cn1cnc2sc(-c3ccc(Cl)cc3)cc2c1=O)N1CCC(F)(F)CC1 [Example 78, 6-(4-chlorophenyl)-3-[2-(4,4-difluoropiperidin-1-yl)-2-oxoethyl]-3H,4H-thieno└2,3-d┘pyrimidin-4-one]"
14,−1%,"O=C(Cn1cnc2scc(-c3cc(C(F)(F)F)cc(C(F)(F)F)c3)c2c1=O)N1CCCC1 [Example 48, 5-[3,5-bis(trifluoromethyl)phenyl]-3-[2-oxo-2-(pyrrolidin-1-yl)ethyl]-3H,4H-thieno[2,3-d]pyrimidin-4-one]"
15,17%,"Cc1sc2ncn(CC(=O)N3CCCC3)c(=O)c2c1-c1ccc(Cl)cc1 [Example 79, 5-(4-Chloro-phenyl)-6-methyl-3-(2-oxo-2-pyrrolidin-1-yl-ethyl)-3H-thieno[2,3-d]pyrimidin-4-one]"
16,3%,"CC(C(=O)N1CCCC1)n1cnc2scc(-c3ccc(F)c(Cl)c3)c2c1=O (stereo not drawn) [Example 57, 5-(3-chloro-4-fluorophenyl)-3-[1-oxo-1-(pyrrolidin-1-yl)propan-2-yl]-3H,4H-thieno[2,3-d]pyrimidin-4-one]"
17,32%,"O=C(On1cnc2scc(-c3ccc(Cl)c(F)c3)c2c1=O)N1CCCC1 [Example 87, 5-(4-chloro-3-fluorophenyl)-4-oxo-3H,4H-thieno[2,3-d]pyrimidin-3-yl pyrrolidine-1-carboxylate]"
18,4%,"O=C(Cn1cnc2scc(-c3ccccc3Cl)c2c1=O)N1CCCC1 [Example 52, 5-(2-chlorophenyl)-3-[2-oxo-2-(pyrrolidin-1-yl)ethyl]-3H,4H-thieno[2,3-d]pyrimidin-4-one]"
19,40%,"Cc1sc2ncn(CC(=O)N3CCCC3)c(=O)c2c1-c1ccc(F)c(C(F)(F)F)c1 [Example 81, 5-[4-fluoro-3-(trifluoromethyl)phenyl]-6-methyl-3-[2-oxo-2-(pyrrolidin-1-yl)ethyl]-3H,4H-thieno[2,3-d]pyrimidin-4-one]"
20,11%,"O=C(Cn1cnc2scc(-c3cnc(F)c(Cl)c3)c2c1=O)N1CC(F)C(F)C1 (stereo not drawn) [Example 73, 5-(5-chloro-6-fluoropyridin-3-yl)-3-[2-(3,4-difluoropyrrolidin-1-yl)-2-oxoethyl]-3H,4H-thieno[2,3-d]pyrimidin-4-one]"
21,1%,"O=C(Cn1cnc2scc(-c3cncnc3)c2c1=O)N1CCCC1 [Example 40, 3-[2-oxo-2-(pyrrolidin-1-yl)ethyl]-5-(pyrimidin-5-yl)-3H,4H-thieno[2,3-d]pyrimidin-4-one]"
22,10%,"O=C(Cn1cnc2scc(-c3cnc(Cl)c(Cl)c3)c2c1=O)N1CCC(F)C1 (stereo not drawn) [Example 63, 5-(5,6-dichloropyridin-3-yl)-3-[2-(3-fluoropyrrolidin-1-yl)-2-oxoethyl]-3H,4H-thieno[2,3-d]pyrimidin-4-one]"
23,0%,"O=C(Cn1cnc2sc(-c3ccc(Cl)cc3)cc2c1=O)N1CCCCC1 [Example 75, 6-(4-chlorophenyl)-3-[2-oxo-2-(piperidin-1-yl)ethyl]-3H,4H-thieno[2,3-d]pyrimidin-4-one]"
24,21%,"O=C(Cn1cnc2scc(-c3ccc(Cl)cc3)c2c1=O)N1CCC(F)C1 (stereo not drawn) [Example 16, 5-(4-chlorophenyl)-3-[2-(3-fluoropyrrolidin-1-yl)-2-oxoethyl]-3H,4H-thieno[2,3-d]pyrimidin-4-one]"
25,48%,"O=C(On1cnc2scc(-c3ccc(F)c(Cl)c3)c2c1=O)N1CCCC1 [Example 86, 5-(3-chloro-4-fluorophenyl)-4-oxo-3H,4H-thieno[2,3-d]pyrimidin-3-yl pyrrolidine-1-carboxylate]"
26,5%,"COc1ccc(-c2csc3ncn(CC(=O)N4CCCC4)c(=O)c23)cc1 [Example 41, 5-(4-methoxyphenyl)-3-[2-oxo-2-(pyrrolidin-1-yl)ethyl]-3H,4H-thieno[2,3-d]pyrimidin-4-one]"
27,2%,"O=C(CCn1cnc2scc(-c3ccc(Cl)c(C(F)(F)F)c3)c2c1=O)N1CCC(F)C1 (stereo not drawn) [Example 102, 5-[4-chloro-3-(trifluoromethyl)phenyl]-3-[3-(3-fluoropyrrolidin-1-yl)-3-oxopropyl]-3H,4H-thieno[2,3-d]pyrimidin-4-one]"
